Data taken from US11993574B2, “Pyrazole and imidazole compounds for inhibition of IL-17 and RORgamma” (REATA PHARMACEUTICALS, INC., priority 2018, dated 2024).

Assays:
Assay type in all cases: cell-based
IL-17A = test: IL-17 release from differentiated primary human T-cells (IL-17A HTRF assay); conditions: primary human CD4+ T cells differentiated into Th17 cells, 45-hour incubation, IL-17A in supernatant; read-out: hIL17 IC50
Experimental: C. IL-17 Release from Differentiated Primary Human T-Cells and Cell Viability
Primary human cryopreserved CD4+ T Cells (Lonza) were thawed according to the manufacturer's recommendations and plated either in Lymphocyte Growth Medium-3 (LGM-3) or X-VIVO 20 media (Lonza) in 96-well tissue culture plates at a density of ˜2×10^5 cells per well, and allowed to recover for approximately 4 hours at 37° C. with 5% CO2 in a humidified atmosphere. After the recovery step, DMSO (vehicle) or test compound at doses ranging from 2 to 500 nM or 4 to 1000 nM in a three-fold dilution series was added to the cells. Three replicate wells were tested for each treatment condition. Final DMSO concentration in each well was 0.1%. Immediately after treatment, CD4+ T cells were activated by adding Dynabeads Human T-Activator CD3/CD28 (Life Technologies; bead-to-cell ratio of 1:2.5) and differentiated into Th17 cells by adding a mixture of the following cytokines: transforming growth factor-β (TGF-β, 5 ng/mL), IL-6 (20 ng/mL), IL-23 (20 ng/mL), and IL-1β (10 ng/mL). Undifferentiated control cells received only cytokine IL-2 (50 ng/mL). All human recombinant cytokines were purchased from R&D Systems. Following a 45-hour incubation at 37° C. with 5% CO2 in a humidified atmosphere, the plates were centrifuged for 3 minutes at 250×g, and half of the supernatant was transferred to anew plate to be used in the IL-17A assay (see below). Cell viability was assessed in the original plate using the CyQuant Direct Assay (Life Technologies). CyQuant reagent (an amount equal to 10% of remaining media volume) was added to the wells, and the plates were then incubated at 37° C. for 75 min. Fluorescence was read on a SpectraMax M2e spectrophotometer at 480 nm (excitation) and 535 nm (emission) wavelengths. CyQuant values from test compound samples were normalized to those from DMSO-treated samples. The concentration of IL-17A in the supernatant was measured using the Homogeneous Time-Resolved Fluorescence (HTRF) assay (Cisbio Bioassays) according to the manufacturer's protocol. The assay was performed at room temperature in low volume, solid white 384-well plates (Greiner Bio-One). Samples and standards (serially-diluted human recombinant IL-17A (0 to 5,000 pg/mL concentration range; Cisbio Bioassays) were incubated with the anti-human IL-17A antibody conjugates (the HTRF donor and acceptor pair) for 16 hours and fluorescence was measured using a Pherastar FS microplate reader (BMG Labtech) in the HTRF mode (excitation at 337 nm and emission at 665 nm and 620 nm). IL-17A levels were assessed in duplicate aliquots of supernatant from each well resulting in a total of six readings per test condition. The 665 nm/620 nm signal ratio was calculated and the concentration of IL-17A in each sample was determined by interpolation from the standard curve. The amount of IL-17A from test compound treated samples were normalized to that of the vehicle-treated samples, set to 100%. Data were analyzed using GraphPad Prism (GraphPad Software, La Jolla California USA). Concentrations of test compound were transformed by taking the logarithm of each concentration used. The IC50 values for compound-mediated reduction in IL-17A levels and cell viability were determined by non-linear regression analysis using the log(inhibitor) vs. normalized response with variable slope equation. Inhibition that is closely correlated with reduced viability is considered to be non-specific.

[1] = molecular target: T1, Human RAR-related Orphan Receptor Gamma (RORγ) (Homo sapiens, UniProt P51449); test: RORγ assay (GAL4-RORγ hybrid luciferase reporter, Indigo Biosciences); conditions: inverse-agonist activity, GAL4-RORγ reporter cells, 23 hours
T1 sequence (P51449 269-508 limits assumed): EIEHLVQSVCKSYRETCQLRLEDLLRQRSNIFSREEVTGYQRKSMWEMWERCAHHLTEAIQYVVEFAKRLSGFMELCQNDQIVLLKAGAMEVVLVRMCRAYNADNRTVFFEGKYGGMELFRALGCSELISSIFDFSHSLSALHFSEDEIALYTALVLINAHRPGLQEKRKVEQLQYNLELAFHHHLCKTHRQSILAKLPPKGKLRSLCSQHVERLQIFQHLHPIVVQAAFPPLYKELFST
Source text: B. RORγ Assay and Cell Viability
The RORγ assay system was purchased from Indigo Biosciences. This nuclear receptor assay utilizes a human cell line that has been engineered to express a hybrid form of the Human RAR-related Orphan Receptor Gamma (RORγ) at high levels. The N-terminal DNA binding domain (DBD) of the native RORγ receptor was substituted with the yeast GAL4-DBD to generate the GAL4-RORγ hybrid nuclear receptor. The reporter cell line is transfected with a plasmid that encodes the beetle luciferase gene under the control of the GAL4 upstream activating sequence (UAS). GAL4 binds to the UAS and increases transcription of downstream target genes. The GAL4-RORγ hybrid is constitutively active; therefore, the principle application of this reporter assay system is to screen test compounds to quantify inverse-agonist activities against human RORγ. Because the ligand binding domain (LBD) of RORγ is identical to the LBD of RORγt, this assay is an accurate surrogate for evaluating activity of experimental ligands against RORγt. To assess the RORγ inverse-agonist activity of the test compounds, reporter cells were plated in white 96-well plates in triplicate and were treated with DMSO (vehicle) or test compound (concentration ranges of 7.8-2000 nM) at 37° C. with 5% CO2 in a humidified atmosphere for 23 hours. After this incubation, luciferin was added to the wells and luciferase activity was determined by measuring the luminescence signal using a BMG Pherastar microplate reader. Viability was determined using the Live Cell Multiplex Assay (Indigo Biosciences). Values from test compound samples were normalized to those from DMSO-treated samples. Data were analyzed using GraphPad Prism version 6.00 for Windows (GraphPad Software, La Jolla Calif. USA). A non-linear regression analysis with log (inhibitor) vs. normalized response using a variable slope was applied to fit the data and determine the IC50 values for inhibition of RORγ and cell viability. Inhibition that is closely correlated with reduced viability is considered to be non-specific.

[2] = tested on: Nrf2 transcription factor; test: AREc32 luciferase reporter assay; conditions: Homo sapiens; AREc32 cells, 19 hours; concentration required to increase GST ARE luciferase reporter activity by 2-fold; read-out: NRF2 ARE 2-Fold (EC2×)
Source text: A. AREc32 Luciferase Reporter Assay
The AREc32 luciferase reporter assay allows for quantitative assessment of the endogenous activity of the Nrt2 transcription factor in cultured mammalian cells. AREc32 cells are derived from MCF-7 human breast carcinoma cells that were stably transfected with a reporter construct that contains the firefly luciferase gene located downstream of eight copies of the rat GSTA2 antioxidant response element (ARE) sequence (Wang et al., 2006; Concept Life Sciences Integrated Discovery and Development Services Ltd (CLSIDDS)). Active Nrf2 binds to the ARE sequences and increases expression of the firefly luciferase gene. To assess the Nrf2-activating potential of the test compounds, AREc32 cells were plated in black […] plates at a density of 20,000 cells per well in triplicate in DMEM+10% FBS+0.8 mg/mL Geneticin and incubated at 37° C. with 5% CO2 in a humidified atmosphere. The next day, cells were treated with DMSO (vehicle) or test compound (concentration ranges of 0.4-200 nM or 3.9-2000 nM) for 19 hours. Luciferase activity was determined using the ONE-Glo Luciferase assay (Promega). The luminescence signal was measured on a BMG Pherastar microplate reader. The mean luminescence value from test compound-treated wells was normalized to that from DMSO-treated wells and was represented as fold-induction. Data were analyzed using GraphPad Prism version 6.00 for Windows, GraphPad Software, La Jolla Calif. USA. A non-linear regression curve with log (agonist) vs. response using a variable slope was used to fit the data. Where applicable, a maximum threshold value of 50-fold over DMSO was set. EC2× values were interpolated from the curve. EC2× corresponds to the concentration of test compound required to increase GST ARE Luciferase reporter activity by 2-fold.

Row | Compound | IC50 (IL-17A) [nM] | IC50 [1] [nM] | EC (2-fold) [2] [µM]
1 | C[C@H]1C(=O)C(C#N)=C[C@@]2(C)c3c(c(-c4ccncn4)nn3-c3ccc(-c4cccc(CF)c4)cn3)CC[C@H]12 [T61] | 115 | 136 | 0.251
2 | Cc1nc2c(n1-c1cccc(F)c1)CC[C@@H]1[C@@H](C)C(=O)C(C#N)=C[C@@]21C [T133] | 247 | 225 | 0.767
3 | C[C@H]1C(=O)C(C#N)=C[C@@]2(C)c3c(c(-c4ccccc4)nn3-c3ccccc3)CC[C@H]12 [T11] | 111 | 73 | 0.107
4 | C[C@H]1C(=O)C(C#N)=C[C@@]2(C)c3nc(-c4ccnc(C(F)(F)F)c4)n(-c4cccc(F)c4)c3CC[C@H]12 [T141] | 194 | 146 | 0.892
5 | CC(C)c1ccc(-c2nc3c(n2C2CC2)CC[C@@H]2[C@@H](C)C(=O)C(C#N)=C[C@@]32C)cc1 [T161] | 113 | 150 | 1.02
6 | C[C@H]1C(=O)C(C#N)=C[C@@]2(C)c3nc(-c4cccc(-c5cncnc5)c4)n(-c4cccc(F)c4)c3CC[C@H]12 [T147] | 185 | 108 | 0.515
7 | C[C@H]1C(=O)C(C#N)=C[C@@]2(C)c3nc(-c4ccc(C5CC5)nc4)n(-c4cccc(F)c4)c3CC[C@H]12 [T142] | 156 | 76 | 0.861
8 | C[C@H]1C(=O)C(C#N)=C[C@@]2(C)c3c(c(-c4ccccc4)nn3CC(F)(F)F)CC[C@H]12 [T3] | 92 | 276 | 1.46
9 | Cc1ccc(-n2nc(-c3ccccc3)c3c2[C@]2(C)C=C(C#N)C(=O)[C@H](C)[C@H]2CC3)cn1 [T32] | 170 | 124 | 0.258
10 | C[C@H]1C(=O)C(C#N)=C[C@@]2(C)c3nc(C4CCOCC4)n(-c4cccc(F)c4)c3CC[C@H]12 [T130] | 273 | 345 | 1.78
11 | C[C@H]1C(=O)C(C#N)=C[C@@]2(C)c3c(c(-c4ccccc4)nn3-c3ccc(Cl)cc3)CC[C@H]12 [T13] | 96 | 129 | 0.274
12 | C[C@H]1C(=O)C(C#N)=C[C@@]2(C)c3nc(-c4cccc(Br)c4)n(-c4cccc(F)c4)c3CC[C@H]12 [T145] | 87 | 92 | 0.755

The next molecules have a lower IC50 (IL-17A) than those just listed; values first:

Row | IC50 (IL-17A) [nM] | IC50 [1] [nM] | Compound | EC (2-fold) [2] [µM]
13 | 24 | 32 | C[C@H]1C(=O)C(C#N)=C[C@@]2(C)c3c(c(-c4ccccc4)nn3-c3ccc(-c4cccnc4)cc3)CC[C@H]12 [T37] | 0.167
14 | 45 | 37 | Cc1cnnc(-c2ccc(-n3nc(-c4ccc(F)cc4)c4c3[C@]3(C)C=C(C#N)C(=O)[C@H](C)[C@H]3CC4)cc2)c1 [T179] | 0.232
15 | 12 | 77 | C[C@H]1C(=O)C(C#N)=C[C@@]2(C)c3c(c(-c4ccc(F)cc4)nn3-c3ccc(-c4ccccc4)cc3)CC[C@H]12 [T65] | 0.201
16 | 26 | 68 | C[C@H]1C(=O)C(C#N)=C[C@@]2(C)c3c(c(-c4ccccc4)nn3-c3ccc(-c4ccc(N(C)C)cc4)cc3)CC[C@H]12 [T47] | 0.253
17 | 37 | 46 | Cc1noc(C)c1-c1ccc(-n2nc(-c3ccccc3)c3c2[C@]2(C)C=C(C#N)C(=O)[C@H](C)[C@H]2CC3)cc1 [T38] | 0.215
18 | 43 | 53 | C[C@H]1C(=O)C(C#N)=C[C@@]2(C)c3c(c(-c4ccccc4)nn3-c3ccc(-c4ccccc4CO)cc3)CC[C@H]12 [T43] | 0.174
19 | 52 | 59 | C[C@H]1C(=O)C(C#N)=C[C@@]2(C)c3c(c(-c4ccncn4)nn3-c3ccc(-c4cncc(F)c4)cc3)CC[C@H]12 [T49] | 0.392
20 | 16 | 111 | C[C@H]1C(=O)C(C#N)=C[C@@]2(C)c3c(c(-c4ccc(CF)cc4)nn3-c3ccc(-c4ccccc4)cc3)CC[C@H]12 [T74] | 0.182
